Data reported in patent US12336981B2, “Compounds and compositions for the inhibition of NAMPT” (Valo Health, Inc., priority 2010, dated 2025).
Like-named read-outs stand apart in the source and are kept apart here.

Tests used:
[1] = biological target: T1, NAMPT (Homo sapiens, UniProt P43490); experiment: Biochemical inhibition assay: NAMPT enzymatic reaction, NMN quantified by mass spectrometry; conditions: read-out: Biochem IC50
T1 construct: His tag; host or cells: E. coli
Procedure, shortened: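 Inhibition of E. coli-expressed His-tagged human NAMPT, measured as NMN formation by mass spectrometry after a 30 min room-temperature reaction containing 1 μM NAM, 100 μM PRPP and 2.5 mM ATP.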

[2] = test system: A2780 cells; experiment: In-vitro cell proliferation assay (SRB), A2780 cells; type: cell-based; conditions: Homo sapiens, A2780, 72 h, A2780 cells, 72 hours, read-out: A2780 IC50
Procedure, shortened: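 SRB read-out: 6% TCA fix 1 h at 4° C., stain, Tris solubilize, A570. Media-only background subtracted; % inhibition from two compound concentrations.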

T1 sequence (P43490 whole entry): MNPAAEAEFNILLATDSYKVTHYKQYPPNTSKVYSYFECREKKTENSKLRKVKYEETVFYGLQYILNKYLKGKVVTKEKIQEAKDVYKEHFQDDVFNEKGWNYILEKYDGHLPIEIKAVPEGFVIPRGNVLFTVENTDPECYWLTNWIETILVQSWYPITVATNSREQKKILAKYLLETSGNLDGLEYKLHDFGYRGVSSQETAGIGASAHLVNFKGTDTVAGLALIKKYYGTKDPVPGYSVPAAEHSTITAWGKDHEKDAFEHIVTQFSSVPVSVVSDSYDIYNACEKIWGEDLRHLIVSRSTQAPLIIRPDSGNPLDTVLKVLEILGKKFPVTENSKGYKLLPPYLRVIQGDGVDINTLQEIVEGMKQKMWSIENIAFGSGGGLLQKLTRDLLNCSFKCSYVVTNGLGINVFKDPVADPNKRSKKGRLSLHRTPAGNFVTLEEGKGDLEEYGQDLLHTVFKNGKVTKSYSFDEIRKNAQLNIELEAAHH

Structure (SMILES) | IC50 ([1]; NAMPT enzymatic reaction) [nM] | IC50 ([2]; SRB) [nM] | IC50 ([1]; NAMPT enzymatic assay) [nM] | IC50 ([2]; SRB assay) [nM]
CCCCOc1cccc(S(=O)(=O)c2ccc(CNC(=O)c3cc4ccncc4o3)cc2)c1 [N-({4-[(3-butoxybenzene)sulfonyl]phenyl}methyl)furo[2,3-c]pyridine-2-carboxamide] | 12.3 | 69.5 |  | 
O=C(NCc1ccc(S(=O)(=O)c2cc(O)ccc2OC(F)(F)F)cc1)c1cnc2[nH]ncc2c1 |  | 67.9 | 21.9 | 
COc1c(C)cc(S(=O)(=O)c2ccc(CNC(=O)c3cc4ccncc4o3)cc2)cc1C | 5.6 | 1.8 |  | 
O=C(NCc1ccc(S(=O)(=O)c2cc(F)cc(OCC(F)(F)F)c2)cc1)c1cc2cnccc2[nH]1 |  | 1.9 | 5.6 | 
Cc1cc(C)n(-c2cccc(S(=O)(=O)c3ccc(CNC(=O)c4cnc5[nH]ncc5c4)cc3)c2)n1 |  | 5.3 | 25.3 | 
COc1ccc(S(=O)(=O)c2ccc(CNC(=O)c3cc4ccncc4o3)cc2)nc1 [N-{[4-(5-methoxypyridine-2-sulfonyl)phenyl]methyl}furo[2,3-c]pyridine-2-carboxamide] |  | 31.6 | 7.9 | 
O=C(NCc1ccc(S(=O)(=O)c2ccc(C(F)(F)F)cc2Cl)cc1)c1cnc2[nH]ncc2c1 [N-[(4-{[2-chloro-4-(trifluoromethyl)benzene]sulfonyl}phenyl)methyl]-1H-pyrazolo[3,4-b]pyridine-5-carboxamide] |  | 86.9 | 114 | 
Cc1cccc(S(=O)(=O)c2ccc(CNC(=O)c3cnc4nccn4c3)cc2)c1 | 1.9 | 9.1 |  | 
COc1ccc(Cl)cc1S(=O)(=O)c1ccc(CNC(=O)c2cc3cnccc3[nH]2)cc1 [N-({4-[(5-chloro-2-methoxybenzene)sulfonyl]phenyl}methyl)-1H-pyrrolo[3,2-c]pyridine-2-carboxamide] | 6 |  |  | 2
COCc1cccc(S(=O)(=O)c2ccc(CNC(=O)c3cc4ccncc4o3)cc2)c1 |  | 13.4 | 18.5 | 
O=C(NCc1ccc(S(=O)(=O)N2CCCCC2)cc1)c1ccc2nc[nH]c2c1 [N-{[4-(piperidine-1-sulfonyl)phenyl]methyl}-1H-1,3-benzodiazole-5-carboxamide] | 21 |  |  | 10
Cn1ncc2cc(C(=O)NCc3ccc(S(=O)(=O)c4ccccc4)cc3)cnc21 [N-{[4-(benzenesulfonyl)phenyl]methyl}-1-methyl-1H-pyrazolo[3,4-b]pyridine-5-carboxamide] | 1730 |  |  | > 30000
O=C(NCc1ccc(S(=O)(=O)c2cncc(F)c2)cc1)c1cc2cnccc2[nH]1 [N-{[4-(5-fluoropyridine-3-sulfonyl)phenyl]methyl}-1H-pyrrolo[3,2-c]pyridine-2-carboxamide] |  | 13.6 | 71.3 | 
CN(C)S(=O)(=O)c1cccc(S(=O)(=O)c2ccc(CNC(=O)c3cnc4nccn4c3)cc2)c1 |  | 11.2 | 2 | 
CCOc1ccc(S(=O)(=O)c2ccc(CNC(=O)c3cc4ccncc4o3)cc2)c(C)c1 | 21.6 | 27.4 |  | 
CCCCOc1cccc(S(=O)(=O)c2ccc(CNC(=O)c3cc4cnccc4[nH]3)cc2)c1 [N-({4-[(3-butoxybenzene)sulfonyl]phenyl}methyl)-1H-pyrrolo[3,2-c]pyridine-2-carboxamide] | 11.5 | 21.6 |  | 
CCCCOc1ccc(S(=O)(=O)c2ccc(CNC(=O)c3cnc4nccn4c3)cc2)cc1F | 1.2 | 3.1 |  | 
O=C(NCc1ccc(S(=O)(=O)c2cc(Cl)ccc2OCC(F)F)cc1)c1ccc2nccn2c1 |  | 0.3 | 2 | 
O=C(NCc1ccc(S(=O)(=O)c2cc(Cl)ccc2OCC(F)F)cc1)c1cc2cnccc2[nH]1 |  | 0.5 | 5 | 
O=C(NCc1ccc(S(=O)(=O)c2cccc(Cl)c2)cc1)c1cnc2nccn2c1 | 1.3 | 1.2 |  | 
O=C(NCc1ccc(S(=O)(=O)c2ccc(Cl)c(C(F)(F)F)c2)cc1)c1cc2ccncc2o1 |  | 6.9 | 6 | 
O=C(NCc1ccc(S(=O)(=O)c2cccc3ccccc23)cc1)c1cnc2[nH]ncc2c1 [N-{[4-(naphthalene-1-sulfonyl)phenyl]methyl}-1H-pyrazolo[3,4-b]pyridine-5-carboxamide] |  | 3.68 | 9.1 | 
O=C(NCc1ccc(S(=O)(=O)c2ccccc2)cc1)N1CCc2[nH]ncc2C1 [N-{[4-(benzenesulfonyl)phenyl]methyl}-1H,4H,5H,6H,7H-pyrazolo[4,3-c]pyridine-5-carboxamide] | > 2000 |  |  | > 2000
Cn1ncc2cccc(S(=O)(=O)c3ccc(CNC(=O)c4cnc5nccn5c4)cc3)c21 [N-{[4-(1-methyl-1H-indazole-7-sulfonyl)phenyl]methyl}imidazo[1,2-a]pyrimidine-6-carboxamide] |  | 100 to 1000 | 23.3 | 
COc1cc(S(=O)(=O)c2ccc(CNC(=O)c3ccc4nccn4c3)cc2)ccc1F | 19.7 | 6.7 |  | 
CCCS(=O)(=O)Nc1cccc(S(=O)(=O)c2ccc(CNC(=O)c3cnc4nccn4c3)cc2)c1 |  | 86.2 | 2.3 | 

Structure (SMILES) | IC50 ([1]; NAMPT enzymatic reaction) [nM] | IC50 ([2]; SRB) [nM] | IC50 ([1]; NAMPT enzymatic assay) [nM] | IC50 ([2]; SRB assay) [nM]
O=C(NCc1ccc(S(=O)(=O)c2ccccc2)cc1)c1ccc2ncccc2c1 [N-{[4-(benzenesulfonyl)phenyl]methyl}quinoline-6-carboxamide] |  | > 10000 | 108 | 
Cc1ccc(S(=O)(=O)c2ccc(CNC(=O)c3cc4ccncc4o3)cc2)cc1C | 15 | 3 |  | 
O=C(NCc1ccc(S(=O)(=O)c2cccc(OC(F)(F)F)c2)cc1)c1cc2ccncc2s1 [N-[(4-{[3-(trifluoromethoxy)benzene]sulfonyl}phenyl)methyl]thieno[2,3-c]pyridine-2-carboxamide] | 2 |  |  | 2.4
N#Cc1ccccc1S(=O)(=O)c1ccc(CNC(=O)c2ccc3nccn3c2)cc1 | 15.6 | 61.3 |  | 
O=C(NCc1ccc(S(=O)(=O)c2ccc(C(F)(F)F)c(Cl)c2)cc1)c1cc2ccncc2s1 |  | 2.3 | 3 | 
O=C(NCc1ccc(S(=O)(=O)c2cccc(OCCN3CCOCC3)c2)cc1)c1ccc2nccn2c1 |  | 3.4 | 6.8 | 
O=C(NCc1ccc(S(=O)(=O)c2ccco2)cc1)c1ccc2nccn2c1 [N-{[4-(furan-2-sulfonyl)phenyl]methyl}imidazo[1,2-a]pyridine-6-carboxamide] |  | 100 to 1000 | 76.2 | 
CC(C)CNC(=O)c1cccc(S(=O)(=O)c2ccc(CNC(=O)c3cnc4nccn4c3)cc2)c1 |  | 45.6 | 7 | 
COc1cc(C)cc(S(=O)(=O)c2ccc(CNC(=O)c3cnc4nccn4c3)cc2)c1 | 1.6 | 1.3 |  | 
O=C(NCc1ccc(S(=O)(=O)c2cccc(N3CCCC3)c2)cc1)c1cnc2[nH]ncc2c1 |  | 12.8 | 17.1 | 
O=C(NCc1ccc(S(=O)(=O)c2cccc3ccccc23)cc1)c1cc2ccncc2s1 [N-{[4-(naphthalene-1-sulfonyl)phenyl]methyl}thieno[2,3-c]pyridine-2-carboxamide] | 2 |  |  | 0.5
O=C(NCc1ccc(S(=O)(=O)c2cccc(N3CCOCC3)c2)cc1)c1cnc2nccn2c1 |  | 13.5 | 2.7 | 
O=C(NCc1ccc(S(=O)(=O)c2cccc(-c3ccccc3)c2)cc1)c1cc2cnccc2[nH]1 | 2.3 | 11.9 |  | 
Cn1cc2ccc(S(=O)(=O)c3ccc(CNC(=O)c4cc5ccncc5o4)cc3)cc2n1 [N-{[4-(2-methyl-2H-indazole-6-sulfonyl)phenyl]methyl}furo[2,3-c]pyridine-2-carboxamide] |  | 2.8 | 3.4 | 
COc1ccc(OC(F)(F)F)cc1S(=O)(=O)c1ccc(CNC(=O)c2ccc3nccn3c2)cc1 |  | 14.4 | 67.7 | 
COc1ccc(S(=O)(=O)c2ccc(CNC(=O)c3cc4ccncc4o3)cc2)cc1 [N-({4-[(4-methoxybenzene)sulfonyl]phenyl}methyl)furo[2,3-c]pyridine-2-carboxamide] | 5.5 | 6 |  | 
O=C(NCc1ccc(S(=O)(=O)c2ccc(C(F)(F)F)cc2)cc1)c1cc2cnccc2[nH]1 [N-[(4-{[4-(trifluoromethyl)benzene]sulfonyl}phenyl)methyl]-1H-pyrrolo[3,2-c]pyridine-2-carboxamide] | 24 |  |  | 26
COc1cc(OC)cc(S(=O)(=O)c2ccc(CNC(=O)c3cc4cnccc4[nH]3)cc2)c1 | 4.4 | 1.5 |  | 
O=C(NCc1ccc(S(=O)(=O)c2cc(F)cc(F)c2)cc1)c1cnc2nccn2c1 | 2 | 3 |  | 
Cc1cc(C)c(S(=O)(=O)c2ccc(CNC(=O)c3cc4ccncc4o3)cc2)c(C)c1 | 59.2 | 100 to 1000 |  | 
O=C(NCc1ccc(S(=O)(=O)c2cc(C(F)(F)F)ccc2OCc2ccccc2)cc1)c1cnc2[nH]ncc2c1 [N-[(4-{[2-(benzyloxy)-5-(trifluoromethyl)benzene]sulfonyl}phenyl)methyl]-1H-pyrazolo[3,4-b]pyridine-5-carboxamide] |  | 100 to 1000 | 100 to 1000 | 
COc1cccc(S(=O)(=O)c2ccc(CNC(=O)c3cnc4[nH]ncc4c3)cc2)c1OC [N-({4-[(2,3-dimethoxybenzene)sulfonyl]phenyl}methyl)-1H-pyrazolo[3,4-b]pyridine-5-carboxamide] | 123 | 83.3 |  | 
O=CNc1ccc(C(=O)NCc2ccc(S(=O)(=O)c3cc(F)cc(F)c3)cc2)cn1 [5-N-({4-[(3,5-difluorobenzene)sulfonyl]phenyl}methyl)pyridine-2,5-diamido] | 1000 to 10000 | 661 |  | 
CCOc1cc(Cl)ccc1S(=O)(=O)c1ccc(CNC(=O)c2cc3cnccc3[nH]2)cc1 | 11.2 | 0.4 |  | 
CCCOc1ccc(S(=O)(=O)c2ccc(CNC(=O)c3ccc4nccn4c3)cc2)c(C)c1 | 9.2 | 13.3 |  | 
